# In US20050282818A1, “Ubiquitin ligase inhibitors” (Rigel Pharmaceuticals, Inc., priority 2004, published 2005):
# pIC50: −log10 of the molar value.
# Legend:
# [1] = target: T1, TRAF6/Uev1A/Ubc13 (Homo sapiens, UniProt Q9Y4K3); test: TRAF6/Uev1A/Ubc13 plate-based ubiquitin ligase assay; assay type: biochemical
# T1 sequence (Q9Y4K3 1-522): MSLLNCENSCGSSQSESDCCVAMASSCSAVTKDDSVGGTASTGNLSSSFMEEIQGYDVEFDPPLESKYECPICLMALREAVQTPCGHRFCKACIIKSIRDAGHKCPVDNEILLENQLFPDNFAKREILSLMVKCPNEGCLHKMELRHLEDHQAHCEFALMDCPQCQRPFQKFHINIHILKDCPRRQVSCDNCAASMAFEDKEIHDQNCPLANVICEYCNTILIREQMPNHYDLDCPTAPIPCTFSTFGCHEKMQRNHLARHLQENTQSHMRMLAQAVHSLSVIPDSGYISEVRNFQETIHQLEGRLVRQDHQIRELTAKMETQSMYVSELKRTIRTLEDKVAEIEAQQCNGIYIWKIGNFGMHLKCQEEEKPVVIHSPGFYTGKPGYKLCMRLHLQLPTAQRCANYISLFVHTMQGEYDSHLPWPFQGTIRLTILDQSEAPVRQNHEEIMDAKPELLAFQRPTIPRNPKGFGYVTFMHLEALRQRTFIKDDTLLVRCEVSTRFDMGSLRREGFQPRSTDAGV
# How it was run: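 Ligase activity was read as luminescence from anti-Flag/HRP detection of Flag-ubiquitin bound to casein-blocked Ni-plates alongside His-ubiquitin after a 1 h room-temperature reaction. Buffer: 62.5 mM Tris pH 7.5, 6.25 mM MgCl2, 1.0 mM DTT, 2 μM ATP; E1, Uev1a/Ubc13 and TRAF6 added last to start. IC50s derived across compound concentrations.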
# [2] = target: T2, ROC1/CUL1 (Homo sapiens, UniProt P62877+Q13616); test: ROC1/CUL1 ubiquitin ligase assay (SCF assay); assay type: biochemical
# T2 construct: made in house
# T2 sequence (P62877 whole entry): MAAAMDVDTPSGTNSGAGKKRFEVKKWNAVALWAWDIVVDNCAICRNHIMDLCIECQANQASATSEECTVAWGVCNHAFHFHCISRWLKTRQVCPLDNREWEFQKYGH
# T2 sequence (Q13616 whole entry): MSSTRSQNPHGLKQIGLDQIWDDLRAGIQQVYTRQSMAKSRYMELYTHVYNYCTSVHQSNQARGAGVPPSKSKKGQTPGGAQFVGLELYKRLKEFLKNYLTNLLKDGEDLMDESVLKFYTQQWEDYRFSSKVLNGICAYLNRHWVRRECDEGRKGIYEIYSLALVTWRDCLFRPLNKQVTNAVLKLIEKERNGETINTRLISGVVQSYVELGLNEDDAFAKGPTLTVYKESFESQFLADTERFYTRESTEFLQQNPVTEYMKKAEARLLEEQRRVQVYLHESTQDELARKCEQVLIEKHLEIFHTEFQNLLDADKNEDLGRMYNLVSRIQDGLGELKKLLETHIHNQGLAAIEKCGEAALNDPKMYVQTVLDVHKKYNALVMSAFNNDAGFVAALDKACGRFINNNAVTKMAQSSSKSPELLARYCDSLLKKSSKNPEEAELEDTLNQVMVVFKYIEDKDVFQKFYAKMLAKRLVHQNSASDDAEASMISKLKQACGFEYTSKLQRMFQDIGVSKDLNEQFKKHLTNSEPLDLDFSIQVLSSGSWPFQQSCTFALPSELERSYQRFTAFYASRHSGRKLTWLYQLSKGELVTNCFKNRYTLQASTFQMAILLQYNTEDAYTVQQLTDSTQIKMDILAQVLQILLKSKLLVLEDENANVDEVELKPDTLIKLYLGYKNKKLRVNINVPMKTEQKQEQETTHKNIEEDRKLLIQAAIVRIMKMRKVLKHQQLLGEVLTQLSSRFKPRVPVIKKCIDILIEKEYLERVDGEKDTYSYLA
# Description: Inhibition of ubiquitin ligase activity of E1+E2+E3 was measured using the protocol as described in WO 01/75145 with E3 as the ROC1/CUL1, ROC1/CUL2, or ROC2/CUL5 complex.
# The wells of nickel-substrate 96-well plates (Pierce Chemical) are blocked with 100 μl of 1 casein/phosphate buffered saline (PBS) for 1 hour at room temperature, then washed with 200 μl of PBST (0.1% Tween-20 in PBS) 3 times. To each well is added the following Flag-ubiquitin (see above) reaction solution: 62.5 mM Tris pH 7.5, 6.25 mm MgCl2, 0.75 mM DTT, 2.5 mM ATP, 2.5 mM NaF1, 2.5 nM Okadaic acid, 100 ng Flag-ubiquitin (made as described above).
# The buffer solution is brought to a final volume of 80 μl with Milipore-filtered water, followed by the addition of 10 μl DMSO.
# To the above solution is then added 10 μl of ubiquitination enzymes in 20 mM Tris buffer, pH 7.5, and 5% glycerol. E2-Ubch5c and E3-His ROC1/Cul1, ROC1/CUL2, and ROC2/CUL5 are made as described in WO 01/75145. E1 is obtained commercially (Affiniti Research Products, Exeter, U. K.). The following amounts of each enzyme are used for these assays: 5 ng/well of E1; […] E2; and 100 ng/well His-E3. Varying amounts of compounds according to the invention are added and the reaction allowed to proceed at room temperature for 1 hour.
# Following the ubiquitination reaction, the wells are washed with 200 μl of PBST 3 times. For measurement of the enzyme-bound ubiquitin, 100 gel of Mouse anti-Flag (1:10,000) and anti-Mouse Ig-HRP (1:15, 000) in PBST are added to each well and allowed to incubate at room temperature for 1 hour. The wells are then washed with 200 μl of PBST 3 times, followed by the addition of 100 μl of luminol substrate (1/5 dilution). Luminescence for each well is then measured using a fluorimeter.
# Table 2 below illustrates the inhibitory activity of the compounds of the invention determined by the TRAF6/Uev1A/Ubc13 assay as well as in the ICAM, APC and the ROC1/CUL1 Ubiquitin Ligase Assay (SCF Assay). The IC50 values were determined using a various concentrations of the compounds.
# [3] = system: ICAM-1 expression in A549 cells; test: ICAM assay (IL-1 induced ICAM-1/CD54 expression in A549 cells); assay type: cell-based, human
# How it was run: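 A549 cells, 10,000/well, preincubated with compound 1 h at 37° C, then stimulated with IL-1 (4 μl of 25 ng/ml added) for 4 h. Surface ICAM-1 detected by anti-CD54 plus anti-mouse IgG staining for 1 h, luminescent read-out after PBS washes.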
# [4] = target: APC11/APC2 (Homo sapiens, UniProt Q9NYG5+Q9UJX6); test: APC-11/APC-2 ligase assay (APC auto ubiquitination); assay type: biochemical; settings: APC assay
# Sequence of APC11/APC2 (Q9NYG5 whole entry): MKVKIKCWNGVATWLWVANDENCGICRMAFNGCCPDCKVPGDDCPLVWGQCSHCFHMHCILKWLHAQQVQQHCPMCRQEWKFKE
# Sequence of APC11/APC2 (Q9UJX6 whole entry): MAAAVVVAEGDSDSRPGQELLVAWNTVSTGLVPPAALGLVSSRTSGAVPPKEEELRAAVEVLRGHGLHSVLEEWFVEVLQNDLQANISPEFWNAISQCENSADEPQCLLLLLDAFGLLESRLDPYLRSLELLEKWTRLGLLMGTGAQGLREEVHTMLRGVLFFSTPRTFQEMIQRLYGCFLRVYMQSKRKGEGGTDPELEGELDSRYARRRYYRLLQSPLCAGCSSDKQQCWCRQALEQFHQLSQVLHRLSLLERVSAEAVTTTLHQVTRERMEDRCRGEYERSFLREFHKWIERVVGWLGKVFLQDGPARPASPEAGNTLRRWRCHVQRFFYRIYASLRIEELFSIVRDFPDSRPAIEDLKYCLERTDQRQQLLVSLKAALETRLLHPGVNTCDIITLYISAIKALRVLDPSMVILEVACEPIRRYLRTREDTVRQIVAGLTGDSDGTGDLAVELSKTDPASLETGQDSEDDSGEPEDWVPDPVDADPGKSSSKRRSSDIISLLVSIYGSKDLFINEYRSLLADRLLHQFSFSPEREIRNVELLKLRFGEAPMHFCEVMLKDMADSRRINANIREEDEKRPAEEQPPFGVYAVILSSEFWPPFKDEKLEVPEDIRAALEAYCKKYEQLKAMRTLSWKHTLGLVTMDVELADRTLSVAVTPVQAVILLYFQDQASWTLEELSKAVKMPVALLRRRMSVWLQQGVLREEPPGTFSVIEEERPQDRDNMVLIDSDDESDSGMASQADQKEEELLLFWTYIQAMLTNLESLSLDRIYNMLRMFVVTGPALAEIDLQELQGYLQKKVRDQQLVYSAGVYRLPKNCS
# How it was run: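 His-tagged APC was captured on nickel plates with human E1 (5 ng/well), UbcH5c (20 ng/well), APC (100 ng/well) and Flag-ubiquitin (100 ng/well) in a Tris pH 7.6 reaction buffer containing 2.5 mM ATP, for 1 hour at room temperature. Read-out was anti-Flag/HRP chemiluminescence. IC50 was set against a DMSO control, typically from 6 or 8 concentrations.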
SMILES,pIC50 [1],pIC50 [2],"pIC50 ([3]; Homo sapiens, A549, ICAM assay)",pIC50 [4],pIC50 ([3]; ICAM assay)
"CC(=O)OCCCNc1cc(SC2CCCCC2)c2nonc2c1[N+](=O)[O-] [compound 135, 3-{[7-(cyclohexylthio)-4-nitro-2,1,3-benzoxadiazol-5-yl]amino}propyl acetate]",≤ 4.70,≤ 4.70,–,–,–
"CCCSc1cc(NCCCOC(C)=O)c([N+](=O)[O-])c2nonc12 [compound 134, 4-{[4-nitro-7-(propylthio)-2,1,3-benzoxadiazol-5-yl]amino}propyl acetate]",≤ 4.70,≤ 4.70,–,–,–
"O=[N+]([O-])c1ccc(N2CCC(Sc3ccccn3)CC2)c2nonc12 [compound 288, 4-nitro-7-[4-(pyridin-2-ylthio)piperidin-1-yl]-2,1,3-benzoxadiazole]",≤ 4.70,≤ 4.70,–,–,–
"CC(=O)OCCCNc1cc(SCc2ccco2)c2nonc2c1[N+](=O)[O-] [compound 136, 3-({7-[(2-furylmethyl)thio]-4-nitro-2,1,3-benzoxadiazol-5-yl}amino)propyl acetate]",≤ 4.70,≤ 4.70,–,–,–
"Cc1ccc(C)c(-c2ccc([N+](=O)[O-])c3nonc23)c1 [compound 471, 4-(2,5-dimethylphenyl)-7-nitro-2,1,3-benzoxadiazole]",≤ 4.70,–,4.70 to 6.00,4.70 to 6.00,–
"COc1cc(Nc2ccc(S(=O)(=O)Nc3cc(OC)c(Cl)cc3OC)c3nonc23)c(OC)cc1Cl [compound 349, N-(4-chloro-2,5-dimethoxyphenyl)-7-([4-chloro-2,5-dimethoxyphenyl]amino)-2,1,3-benzoxadiazole-4-sulfonamide]",≤ 4.70,–,–,4.70 to 6.00,≤ 4.70
"O=[N+]([O-])c1ccc(NS(=O)(=O)c2ccc(Cl)c3nonc23)c2ccccc12 [compound 388, 7-chloro-N-(4-nitronaphthalen-1-yl)-2,1,3-benzoxadiazole-4-sulfonamide]",≤ 4.70,–,≤ 4.70,≤ 4.70,–
"O=[N+]([O-])c1cc(-c2cccc(C(F)(F)F)c2)c2nonc2c1 [compound 480, 4-(3-[trifluoromethyl]phenyl)-6-nitro-2,1,3-benzoxadiazole]",≤ 4.70,–,4.70 to 6.00,4.70 to 6.00,–
"COc1cc(NS(=O)(=O)c2ccc(F)c3nonc23)c(OC)cc1Cl [compound 348, N-(4-chloro-2,5-dimethoxyphenyl)-7-fluoro-2,1,3-benzoxadiazole-4-sulfonamide]",≤ 4.70,–,4.70 to 6.00,≤ 4.70,–
"Nc1ccc(N2CCOCC2)c2nonc12 [compound 375, 7-(morpholin-4-yl)-2,1,3-benzoxadiazol-4-amine]",≤ 4.70,–,≤ 4.70,≤ 4.70,–
"FC(F)(F)c1cccc(-c2cc(-c3cccc(C(F)(F)F)c3)c3nonc3c2)c1 [compound 418, 4,6-bis(3-[trifluoromethyl]phenyl)-2,1,3-benzoxadiazole]",≤ 4.70,–,≤ 4.70,≤ 4.70,–
"Cc1cc(F)ccc1NS(=O)(=O)c1ccc(Cl)c2nonc12 [compound 358, 7-chloro-N-(4-fluoro-2-methylphenyl)-2,1,3-benzoxadiazole-4-sulfonamide]",≤ 4.70,–,≤ 4.70,≤ 4.70,–
"CC(C)(C)c1ccc(-c2cc(N3CCCCC3)c([N+](=O)[O-])c3nonc23)cc1 [compound 433, 7-(4-t-butylphenyl)-4-nitro-5-(piperidin-1-yl)-2,1,3-benzoxadiazole]",≤ 4.70,–,≤ 4.70,≤ 4.70,–
"Cc1ccc(-c2cc([N+](=O)[O-])cc3nonc23)cc1 [compound 476, 6-nitro-4-p-tolyl-2,1,3-benzoxadiazole]",≤ 4.70,–,≤ 4.70,≤ 4.70,–
"COc1cccc(NS(=O)(=O)c2ccc(Sc3cccc4ccccc34)c3nonc23)c1OC [compound 413, N-(2,3-dimethoxyphenyl)-7-(naphthalen-1-ylthio)-2,1,3-benzoxadiazole-4-sulfonamide]",4.70 to 6.00,–,4.70 to 6.00,4.70 to 6.00,–
"CC(C)(C)c1ccc(-c2cc(-c3ccc(C(C)(C)C)cc3)c3nonc3c2)cc1 [compound 422, 4,6-bis(4-t-butylphenyl)-2,1,3-benzoxadiazole]",≤ 4.70,–,≤ 4.70,≤ 4.70,–
"Cc1cc2cc(NS(=O)(=O)c3ccc(Cl)c4nonc34)ccc2[nH]1 [compound 370, 7-chloro-N-(2-methyl-1H-indol-5-yl)-2,1,3-benzoxadiazole-4-sulfonamide]",≤ 4.70,–,4.70 to 6.00,≤ 4.70,–

# Continued, values first:
pIC50 [1],pIC50 [2],"pIC50 ([3]; Homo sapiens, A549, ICAM assay)",pIC50 [4],pIC50 ([3]; ICAM assay),SMILES
≤ 4.70,–,≤ 4.70,4.70 to 6.00,–,"O=S(=O)(Nc1cccc(F)c1F)c1ccc(Sc2ccc(O)cc2)c2nonc12 [compound 402, N-(2,3-difluorophenyl)-7-([4-hydroxyphenyl]thio)-2,1,3-benzoxadiazole-4-sulfonamide]"
≤ 4.70,–,4.70 to 6.00,≤ 4.70,–,"COc1cc(Cl)c(C)cc1NS(=O)(=O)c1ccc(Cl)c2nonc12 [compound 362, 7-chloro-N-(4-chloro-2-methoxy-5-methylphenyl)-2,1,3-benzoxadiazole-4-sulfonamide]"
≤ 4.70,–,≤ 4.70,≤ 4.70,–,"CC(=O)Nc1ccc(-c2cc(C)cc(C)c2)c2nonc12 [compound 436, N-(7-[3,5-dimethylphenyl]-2,1,3-benzoxadiazol-4-yl)acetamide]"
≤ 4.70,–,≤ 4.70,≤ 4.70,–,"COc1ccc(OC)c(NS(=O)(=O)c2ccc(N3CCOCC3)c3nonc23)c1 [compound 369, N-(2,5-dimethoxyphenyl)-7-(morpholin-4-yl)-2,1,3-benzoxadiazole-4-sulfonamide]"
≤ 4.70,–,≤ 4.70,≤ 4.70,–,"O=S(=O)(Nc1ccc(F)cc1F)c1ccc(Nc2ccc(F)cc2F)c2nonc12 [compound 371, N-(2,4-difluorophenyl)-7-([2,4-difluorophenyl]amino)-2,1,3-benzoxadiazole-4-sulfonamide]"
4.70 to 6.00,–,4.70 to 6.00,≤ 4.70,–,"COc1ccc(-c2ccc([N+](=O)[O-])c3nonc23)cc1 [compound 466, 4-(4-methoxyphenyl)-7-nitro-2,1,3-benzoxadiazole]"
≤ 4.70,–,≤ 4.70,≤ 4.70,–,"Nc1ccc(Nc2cccc(F)c2F)c2nonc12 [compound 396, 7-{(2,3-difluorophenyl)amino}-2,1,3-benzoxadiazol-4-amine]"
4.70 to 6.00,–,4.70 to 6.00,4.70 to 6.00,–,"O=[N+]([O-])c1ccc(-c2ccc3c(c2)OCO3)c2nonc12 [compound 467, 4-(benzodioxol-5-yl)-7-nitro-2,1,3-benzoxadiazole]"
